From article PMC11589570, “Critical assessment of LC3/GABARAP ligands used for degrader development and ligandability of LC3/GABARAP binding pockets” (Nature Communications, 2024)
Where “and” joins values, the source holds several entries; their conditions need not be identical. Equal values may be shown once.

Tests used:
Test in all cases: FP assay with Cy5-labelled p62 LIR tracer (protein titration and tracer displacement)
LC3C = LC3C (Homo sapiens, UniProt Q9BXW4); type: binding; conditions: for normalized FP signal, p62 LIR tracer displacement: LC3C, listed as AN1; for compound titration LC3C (displacement curve, FP signal): two replicate columns per compound
Chain of LC3C (Q9BXW4 1-126): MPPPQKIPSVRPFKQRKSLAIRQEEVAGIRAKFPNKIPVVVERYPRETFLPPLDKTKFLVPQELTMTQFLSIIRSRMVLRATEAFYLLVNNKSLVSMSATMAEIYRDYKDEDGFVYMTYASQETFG

GABARAP = GABARAP (Homo sapiens, UniProt O95166); type: binding; conditions: for normalized FP signal, p62 LIR tracer displacement: GABARAP, listed as AN1; for compound titration GABARAP (displacement curve, FP signal): two replicate columns per compound
Chain of GABARAP (O95166 1-116): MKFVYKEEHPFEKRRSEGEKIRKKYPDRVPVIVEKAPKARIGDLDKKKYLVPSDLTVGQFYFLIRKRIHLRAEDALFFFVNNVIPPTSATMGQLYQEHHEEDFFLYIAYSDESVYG

GABARAPL1 = GABARAPL1 (Homo sapiens, UniProt Q9H0R8); type: binding; conditions: for normalized FP signal, p62 LIR tracer displacement: GABARAPL1; for compound titration GABARAPL1 (displacement curve, FP signal): two replicate columns per compound; for FP tracer displacement curve signal (compound titration): duplicate values
Chain of GABARAPL1 (Q9H0R8 whole entry): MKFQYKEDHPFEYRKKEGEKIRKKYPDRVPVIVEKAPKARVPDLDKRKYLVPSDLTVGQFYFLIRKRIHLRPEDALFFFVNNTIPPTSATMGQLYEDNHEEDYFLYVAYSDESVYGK

GABARAPL2 = GABARAPL2 (Homo sapiens, UniProt P60520); conditions: GABARAPL2
Chain of GABARAPL2 (P60520 whole entry): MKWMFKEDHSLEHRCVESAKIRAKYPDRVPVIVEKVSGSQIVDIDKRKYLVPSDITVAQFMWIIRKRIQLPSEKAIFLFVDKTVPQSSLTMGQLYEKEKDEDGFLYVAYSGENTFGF

[1] = log10 concentration [M] -3.82391
[2] = log10 concentration [M] -4.1549
[3] = log10 concentration [M] -4.60206
[4] = log10 concentration [M] -5.30103
[5] = log10 concentration [M] -5.69897
[6] = log10 concentration [M] -6.22185
[7] = log10 concentration [M] -6.69897
[8] = log10 concentration [M] -7.30103
[9] = log10 concentration [M] -7.79588
[10] = log10 concentration [M] -8.08092
[11] = log10 concentration [M] -3.82391, listed as AN1
[12] = log10 concentration [M] -4.1549, listed as AN1
[13] = log10 concentration [M] -4.60206, listed as AN1
[14] = log10 concentration [M] -5.69897, listed as AN1
[15] = log10 concentration [M] -6.22185, listed as AN1
[16] = log10 concentration [M] -6.69897, listed as AN1
[17] = log10 concentration [M] -7.30103, listed as AN1
[18] = log10 concentration [M] -7.79588, listed as AN1
[19] = log10 concentration [M] -8.08092, listed as AN1

## O=C1Nc2ccc(Br)cc2C1=Cc1cc(O)c(O)c(Br)c1 [compound 1]
LC3C; [1]
  normalized FP signal, p62 LIR tracer displacement: 79.6 and 85.8
  compound titration LC3C (displacement curve, FP signal): 79.6 and 85.8
LC3C; [2]
  normalized FP signal, p62 LIR tracer displacement: 89.2 and 87.8
  compound titration LC3C (displacement curve, FP signal): 89.2 and 87.8
LC3C; [3]
  normalized FP signal, p62 LIR tracer displacement: 89.4 and 94.4
  compound titration LC3C (displacement curve, FP signal): 89.4 and 94.4
LC3C; log10 concentration [M] -5
  normalized FP signal, p62 LIR tracer displacement: 89.6 and 94
  compound titration LC3C (displacement curve, FP signal): 89.6 and 94
LC3C; [4]
  normalized FP signal, p62 LIR tracer displacement: 93 and 97.8
  compound titration LC3C (displacement curve, FP signal): 93 and 97.8
LC3C; [5]
  normalized FP signal, p62 LIR tracer displacement: 84.2 and 88.6
  compound titration LC3C (displacement curve, FP signal): 84.2 and 88.6
LC3C; [6]
  normalized FP signal, p62 LIR tracer displacement: 82.6 and 92
  compound titration LC3C (displacement curve, FP signal): 82.6 and 92
LC3C; [7]
  normalized FP signal, p62 LIR tracer displacement: 93.4 and 98.2
  compound titration LC3C (displacement curve, FP signal): 93.4 and 98.2
LC3C; [8]
  normalized FP signal, p62 LIR tracer displacement: 96.4
  compound titration LC3C (displacement curve, FP signal): 96.4
LC3C; [9]
  normalized FP signal, p62 LIR tracer displacement: 91.2 and 92.8
  compound titration LC3C (displacement curve, FP signal): 91.2 and 92.8
LC3C; [10]
  normalized FP signal, p62 LIR tracer displacement: 88.2 and 91.8
  compound titration LC3C (displacement curve, FP signal): 88.2 and 91.8
GABARAP; [1]
  normalized FP signal, p62 LIR tracer displacement: 88.1034 and 91.0345
  compound titration GABARAP (displacement curve, FP signal): 88.1034 and 91.0345
GABARAP; [2]
  normalized FP signal, p62 LIR tracer displacement: 88.6207 and 92.2414
  compound titration GABARAP (displacement curve, FP signal): 88.6207 and 92.2414
GABARAP; [3]
  normalized FP signal, p62 LIR tracer displacement: 90.1724 and 94.8276
  compound titration GABARAP (displacement curve, FP signal): 90.1724 and 94.8276
GABARAP; log10 concentration [M] -5
  normalized FP signal, p62 LIR tracer displacement: 93.7931 and 97.069
  compound titration GABARAP (displacement curve, FP signal): 93.7931 and 97.069
GABARAP; [4]
  normalized FP signal, p62 LIR tracer displacement: 96.0345 and 95.3448
  compound titration GABARAP (displacement curve, FP signal): 96.0345 and 95.3448
GABARAP; [5]
  normalized FP signal, p62 LIR tracer displacement: 85 and 92.069
  compound titration GABARAP (displacement curve, FP signal): 85 and 92.069
GABARAP; [6]
  normalized FP signal, p62 LIR tracer displacement: 93.4483 and 97.5862
  compound titration GABARAP (displacement curve, FP signal): 93.4483 and 97.5862
GABARAP; [7]
  normalized FP signal, p62 LIR tracer displacement: 98.1034 and 94.3103
  compound titration GABARAP (displacement curve, FP signal): 98.1034 and 94.3103
GABARAP; [8]
  normalized FP signal, p62 LIR tracer displacement: 97.4138 and 96.5517
  compound titration GABARAP (displacement curve, FP signal): 97.4138 and 96.5517
GABARAP; [9]
  normalized FP signal, p62 LIR tracer displacement: 92.4138 and 89.8276
  compound titration GABARAP (displacement curve, FP signal): 92.4138 and 89.8276
GABARAP; [10]
  normalized FP signal, p62 LIR tracer displacement: 89.1379 and 97.2414
  compound titration GABARAP (displacement curve, FP signal): 89.1379 and 97.2414
GABARAPL1; [11]
  normalized FP signal, p62 LIR tracer displacement: 89.2857 and 90
GABARAPL1; [12]
  normalized FP signal, p62 LIR tracer displacement: 93.2857 and 94.1429
GABARAPL1; [13]
  normalized FP signal, p62 LIR tracer displacement: 92.8571 and 97.1429
GABARAPL1; log10 concentration [M] -5, listed as AN1
  normalized FP signal, p62 LIR tracer displacement: 95.2857 and 96.7143
GABARAPL1; [4]
  normalized FP signal, p62 LIR tracer displacement: 97.7143
GABARAPL1; [14]
  normalized FP signal, p62 LIR tracer displacement: 89.4286 and 95
  FP tracer displacement curve signal (compound titration): 89.4286 and 95
GABARAPL1; [15]
  normalized FP signal, p62 LIR tracer displacement: 93.8571 and 97.2857
  FP tracer displacement curve signal (compound titration): 93.8571 and 97.2857
GABARAPL1; [16]
  normalized FP signal, p62 LIR tracer displacement: 97.1429 and 99.8571
  FP tracer displacement curve signal (compound titration): 97.1429 and 99.8571
GABARAPL1; [17]
  normalized FP signal, p62 LIR tracer displacement: 96 and 96.1429
  FP tracer displacement curve signal (compound titration): 96 and 96.1429
GABARAPL1; [18]
  normalized FP signal, p62 LIR tracer displacement: 97.7143 and 93.4286
  FP tracer displacement curve signal (compound titration): 97.7143 and 93.4286
GABARAPL1; [19]
  normalized FP signal, p62 LIR tracer displacement: 99
  FP tracer displacement curve signal (compound titration): 99
GABARAPL1; [1]
  compound titration GABARAPL1 (displacement curve, FP signal): 89.2857 and 90
GABARAPL1; [2]
  compound titration GABARAPL1 (displacement curve, FP signal): 93.2857 and 94.1429
GABARAPL1; [3]
  compound titration GABARAPL1 (displacement curve, FP signal): 92.8571 and 97.1429
GABARAPL1; log10 concentration [M] -5
  compound titration GABARAPL1 (displacement curve, FP signal): 95.2857 and 96.7143
GABARAPL2; [11]
  normalized FP signal, p62 LIR tracer displacement: 91.2 and 81.6
GABARAPL2; [12]
  normalized FP signal, p62 LIR tracer displacement: 91.2 and 92.8
GABARAPL2; [13]
  normalized FP signal, p62 LIR tracer displacement: 92.8 and 98.4
GABARAPL2; log10 concentration [M] -5
  normalized FP signal, p62 LIR tracer displacement: 109.2
GABARAPL2; log10 concentration [M] -5.30103, listed as AN1
  normalized FP signal, p62 LIR tracer displacement: 91.6 and 94.8
GABARAPL2; [14]
  normalized FP signal, p62 LIR tracer displacement: 82.8 and 89.2
GABARAPL2; [6]
  normalized FP signal, p62 LIR tracer displacement: 88
GABARAPL2; [15]
  normalized FP signal, p62 LIR tracer displacement: 104.4
GABARAPL2; [7]
  normalized FP signal, p62 LIR tracer displacement: 89.6
GABARAPL2; [8]
  normalized FP signal, p62 LIR tracer displacement: 94
GABARAPL2; [18]
  normalized FP signal, p62 LIR tracer displacement: 90.4 and 93.2
GABARAPL2; [10]
  normalized FP signal, p62 LIR tracer displacement: 93.6
